# Experimental data as given in paper PMC5338303, “Unveiling the Metabolic Changes on Muscle Cell Metabolism Underlying p-Phenylenediamine Toxicity” (Frontiers in Molecular Biosciences, 2017).
# Where “and” joins values, the source holds several entries; their conditions need not be identical. Identical values can stand only once. Like-named read-outs stand apart in the source and are kept apart here.
# How the values were obtained:
# [1] = tested on: Wistar female rats; assay: Blood packed cell volume, hemoglobin, organ weights and histology; assay type: in vivo, rat
# Experimental: (§1) The animals were divided into groups of three rats at random. A control group receiving the vehicle and four groups receiving PPD at several concentrations 10, 20, 40, and 60 mg/kg at single dose were included (Figure 1). The compound was administered in a volume of 300 μl of 100% DMSO by gavage. Animals were evaluated based on general appearance, behavior and signs of morbidity using the Irwin test (Castagné et al., [2012]), immediately following administration, 30 min, 1, 2, 4, and 8 h after the administration (Figure 1). All of the animals were weighed just before the acclimatization period, before administration and 24, 48, and 72 h after administration. At the end of the observation period (24, 48, and 72 h after administration), all the animals were anesthetized and blood samples were collected from tail and retro orbital sinus and centrifuged at 2000 × g for 30 min at 4°C to recover the serum (Figure 1). The serum was frozen and stored at −20°C until determination of biochemical parameters such as urea, creatinin, Glucose, aspartate aminotransferase (AST), alanine aminotransferase (ALT) and creatine kinase (CK), lactate dehydrogenase (LDH), at 24, 48, and 72 h before sacrificed in a CO2 chamber and autopsied. All of the tissues were observed grossly. Ovaries, kidneys, liver, spleen, heart, and lung were weighed and the relative organ weights were calculated. Serum CK and LDH levels were measured.
# [2] = tested on: Wistar female rats; assay: Serum biochemical parameters (AST, ALT, CK, LDH); assay type: in vivo, rat; settings: 40 and 60 mg/kg
# Experimental: as §1
# [3] = tested on: C2C12 cells; assay: Annexin V-Fluorescein isothiocyanate binding assay (apoptosis); assay type: cell-based, Mus musculus mouse
# Source text: This technique permits to determine whether a cell is at early or late apoptosis or necrotic state. In early apoptosis, Phosphatidylserine (PS) is translocated to the outer membrane allowing PS-annexin V-Fluorescein Isothiocyanate (FITC) binding. In late apoptosis, as well as in necrotic processes, cell membranes lose their integrity allowing PI to access the nucleus and bind the DNA bases. Next, by using FACS analysis one can determine PI and annexin V-FITC staining accumulation to differentiate non-apoptotic cells (PI– and annexin V–) from early apoptotic (PI− and annexin V+) and necrotic or late apoptotic (PI+) cells (Cortés et al., [2012]). The same amount of C2C12 cells mentioned for cell cycle assay was treated with PPD as previously described. Cells were then collected and resuspended in binding buffer (10 mM Hepes/NaOH, pH7.4, 140 mM NaCl, 2.5 mM CaCl2). Annexin V-FITC conjugate (1 μg/ml) was added and incubated for 30 min at room temperature in the dark. Just before FACS analysis [Bender medSystems (Innogenetics) human Annexin V-FITC Kit cat No. BMS306FI], cells were stained with 1 mg/ml PI solution. In each experiment ~20 × 10^3 cells per condition were analyzed and the experiment was performed five times.
# [4] = tested on: C2C12 cells; assay: Cell cycle analysis (FACS, propidium iodide); assay type: cell-based, Mus musculus mouse; settings: vs untreated cells
# Experimental: Cell cycle was evaluated by measuring FACS (fluorescence-activated cell sorter) in an Epics XL flow cytometer at 488 nm (Coulter Corporation, Hialeah, FL, USA). This technique allows for the semiquantitation of DNA in each cell and permits to separate cells in G0 or G1 phase (one copy of DNA), G2 or M phase (after DNA duplication) and S phase (the amount of DNA per cell is in an intermediate state between the two previous conditions). For these measurements, C2C12 cells were cultivated in 6 well-plates (4 × 10^5 cells/well each) with 2 ml of culture medium. After 24 h of plated, PPD corresponding to IC50 and IC80 concentrations was added and cells were incubated for 24 h, in parallel, control C2C12 cells were cultured without PPD. All experiments were performed five times with two replicates for each experiment.
# [5] = tested on: central carbon metabolic pathways of C2C12 cells; assay: Mass isotopomer distribution analysis (MIDA) with [1,2-13C2]-glucose, GC/MS; assay type: cell-based, Mus musculus mouse
# Experimental: To track and measure the substrate carbon flux through central carbon metabolic pathways of C2C12 cells when treated with PPD, mass isotopomer distribution analysis (MIDA), and metabolic modeling approaches were used.
# (§2) Cells were cultured in DMEM (Biowithaker) °supplemented with 10% dialyzed heat-inactivated Fetal Bovine Serum (FBS), glucose (10 mM, 50% isotope enrichment [1,2-^13C2]-glucose), asparagine (20 mg/ml), penicillin (100 U/ml), and streptomycin (100 μg/ml). […] Initially each flask contained 10^6 cells and the incubation was carried out for 24 h. To separate medium and cell pellets, cells were centrifuged at the end of incubation (3000 × g, 5 min). Afterwards, pellet and medium were stored at −20°C for metabolite isolations.
# • Glucose. A mixed DOWEX 50-DOWEX 1 ionic exchange column was used to corroborate that the original medium contained 50% of labeled glucose ([1,2-^13C2] D-glucose). First, 500 μl of medium and after 6 ml of milliQ water were passed through the column and were collected into a glass tube. Next, it was lyophilized for 12 h to eliminate the remaining liquid and the dried sample was stored. Finally, hydroxyl-amine in pyridine and acetic anhydride were used to derivatize glucose to its aldonitrile form. The ion cluster was set to m/z 328 (C1–C6, chemical ionization; Wamelink et al., [2008]). • Glycogen. Glycogen for biochemical and isotopomerics distribution determination was extracted as described in Burchert ([2007]), by direct digestion of sonicated extracts with amyloglucosidase. Measurement of glucose released from glycogen was done by using the isotopomer [U-13C6-1,2,3,4,5,6,6-D7]D-glucose (or [U-13C-D7]-glucose as shorter name) as recovery standard and internal standard quantification procedures. […] We monitored the ion cluster around the m/z 328 (C1–C6, chemical ionization; Wamelink et al., [2008]). • Lactate. […] Next, the m/z 328 was monitored (C1–C3, chemical ionization, Wamelink et al., [2008]). • Ribose from RNA. […]
# [6] = tested on: C2C12 cells; assay: Biochemical characterization: glucose and lactate concentrations in culture medium; assay type: cell-based, Mus musculus mouse; settings: PPD at IC50, 24 h
# Experimental: Glucose and lactate concentrations were determined from culture medium at initial and end-time points by using Cobas Mira Plus chemistry analyzer (HORIBA ABX, Montpellier, France; Cisternas et al., [2016]).
# as §2
# [7] = tested on: C2C12 cells; assay: Cell viability assay (MTT); assay type: cell-based, Mus musculus mouse; settings: for IC50: read-out: IC50 (cell proliferation, MTT); for IC80: read-out: IC80 (cell proliferation, MTT)
# Experimental: C2C12 cells from Mus musculus mouse were cultured in DMEM (Dulbecco's Modified Eagle's medium) with 10 mg/ml of streptomycin, 2 mM glutamine, 10,000 units/ml of penicillin and 10% heat-inactivated FCS, until subconfluence was reached. For biochemical characterization, C2C12 cells were cultured in DMEM, supplemented with 4 mM asparagine without glutamine, 10 mg/ml of streptomycin, 10,000 units/ml of penicillin and 10% heat-inactivated FCS.
# The absorbance of MTT [3-(4,5-Dimethylthiazol-2-Yl)-2,5-Diphenyltetrazolium Bromide] dye staining of living cells was used to determine cell viability (Pachon et al., [2007]; Pachón et al., [2008]). Here, 3.5 × 10^3 C2C12 cells/well were cultured in 96 well-plates at different PPD concentrations (from 1 to 100 μg/ml). An ELISA plate reader (Tecan Sunrise MR20-301, TECAN, Austria) was used to determine the relative cell viability, the absorbance was determined at 550 nm. Cell survival rate relative to untreated cells after 24 h of treatment was used to estimate the concentrations that caused 50% (IC50) and 80% (IC80) of inhibition of C2C12 at that time.
# [8] = tested on: Wistar female rats; assay: Toxicity after oral administration; general appearance, behavior and signs of morbidity (Irwin test); assay type: in vivo, rat; parameters: key to Myoglobiunuria: ++ represents the presence of myoglobinuria; settings: for Ataxic Gait / Hypotonic Gait: animals affected/group; for Hipoactivity / Piloerection: duration
# Experimental: The study was approved by the Ethics Committee on Animal Experimentation of University of Navarra. Wistar female rats, with a body weight of 160 g ± 20% (8 weeks old), were supplied by Harlan (Harlan Laboratories, Indianapolis, IN). The animals were housed in polycarbonate cages with stainless steel covers in a room under controlled temperature conditions (22 ± 3°C), controlled relative humidity (50 ± 20%) and light (12 h light–dark cycle). Air was exchanged 15 times/h sterile food supplied by Harlan (Harlan Laboratories, Indianapolis, IN) and controlled water was available ad libitum. The rats were housed in the study room for 5 days prior to the beginning of treatment in order to allow acclimatization to the environmental conditions. Finally, three rats were randomly assigned to each studied group corresponding to different PPD doses (10, 20, 40, and 60 mg/Kg) and control (DMSO).
# as §1
compound,measurement,setting,value
"Nc1ccc(N)cc1 [PPD, p-phenylenediamine]",organs weight,"[1]; 48 and 72 h, any condition",No significant differences
same,Blood packed cell volume,[1]; any condition (10-60 mg/kg),No significant differences
same,hemoglobin levels,[1]; any condition (10-60 mg/kg),No significant differences
same,Histological analysis of extracted organs,[1]; vs controls,patterns similar to controls
same,ALT in serum,"[2]; 24, 48 and 72 h",increased
same,AST in serum,"[2]; 24, 48 and 72 h",increased
same,CK in serum,[2]; 24 h,increased
same,LDH in serum,[2]; 24 h,increased
same,early apoptosis,"[3]; PPD at IC50, 24 h",34.7%
same,late apoptosis,"[3]; PPD at IC50, 24 h",18.8%
same,early apoptosis,"[3]; PPD at IC80, 24 h",20.1%
same,late apoptosis,"[3]; PPD at IC80, 24 h",23.9%
same,decrease in the percentage of cells in G0/G1 phases,"[4]; PPD at IC50, 24 h",19%
same,increase in the population in S phase,"[4]; PPD at IC50, 24 h",13%
same,decrease in the percentage of cells in G0/G1 phases,"[4]; PPD at IC80, 24 h",32%
same,increase in the population in S phase,"[4]; PPD at IC80, 24 h",28%
same,total glycogen reservoirs,"[5]; 24 h, no significant differences between groups","10,1 μg"
same,Glycolitic rate = [Δlactate × m2lactate]/[Δglucose × m2glucose],"[5]; PPD at IC50, 24 h, not significantly different from control","28,8 ± 14%"
same,ox/non-ox ratio of pentose-phosphate pathway = m1 + m3 / (m2 + m3 + 2m4),"[5]; RNA ribose, PPD at IC50, 24 h","2,224 ± 0,189 and 2.224 ± 0.189"
same,glucose consumption (Δglucose),[6],"2,42 ± 0,26 mM"
same,lactate production (Δlactate),[6],"1,5 ± 0,3 mM"
same,IC50,"[7]; C2C12, 24 h",154 µM
same,IC80,"[7]; C2C12, 24 h",201 ± 8 µM
same,IC50,"[7]; C2C12, 48 h",108 ± 8 µM
same,IC80,"[7]; C2C12, 48 h",182 ± 12 µM
same,IC50,"[7]; C2C12, 72 h",59 ± 1 µM
same,IC80,"[7]; C2C12, 72 h",91 ± 7 µM
same,Myoglobiunuria,[8]; 10 mg/kg single oral dose,++
same,Ataxic Gait,[8]; 10 mg/kg single oral dose,0/3
same,Hypotonic Gait,[8]; 10 mg/kg single oral dose,0/3
same,Hipoactivity,[8]; 10 mg/kg single oral dose,10 h
same,Piloerection,[8]; 10 mg/kg single oral dose,2 to 4 h
same,Myoglobiunuria,[8]; 20 mg/kg single oral dose,++
same,Ataxic Gait,[8]; 20 mg/kg single oral dose,0/3
same,Hypotonic Gait,[8]; 20 mg/kg single oral dose,0/3
same,Hipoactivity,[8]; 20 mg/kg single oral dose,10 h
same,Piloerection,[8]; 20 mg/kg single oral dose,2 to 4 h
same,Hipoactivity,[8]; 40 mg/kg single oral dose,24 h
same,Piloerection,[8]; 40 mg/kg single oral dose,Until death
same,Ataxic Gait,[8]; 60 mg/kg single oral dose,0/3
same,Hypotonic Gait,[8]; 60 mg/kg single oral dose,3/3
same,Hipoactivity,[8]; 60 mg/kg single oral dose,48 h
same,Piloerection,[8]; 60 mg/kg single oral dose,Until death
same,gait,"[8]; 60 mg/kg, after 48 h, disappeared after 72 h",ataxic gait
same,signs observed at lower doses,"[8]; 10 and 20 mg/kg, until 10 h of treatment",depressed activity and some of they had brown color urine or myoglobinuria
same,signs observed at higher doses,"[8]; 40 and 60 mg/kg, until 4 h of treatment","total loss of equilibrium, hypotonic gait and piloerection"
same,urine color,"[8]; after 24 h of treatment, disappears at 48 and 72 h",all animals had urine brown color but in absence of hematuria
same,evolution of body weight,"[8]; all groups, 10-60 mg/kg, up to 72 h",normal
same,persistence of muscular weakness,"[8]; rat, in vivo",3 days
